Like-named read-outs stand apart in the source and are kept apart here.
How the values were obtained:
[1] = test system: Pseudomonas aeruginosa (ATCC 9027); test: Antimicrobial efficacy (stand-alone log reduction), P. aeruginosa; format: cell-based; conditions: for log reduction at 4 µg/mL: 4.0 ppm alexidine in ReNu MPS
Experimental: (§1) This Example illustrates the microbiocidal efficacy of solutions according to the present invention. The antimicrobial efficacy of each of various compositions for the chemical disinfection of contact lenses was evaluated. Microbial challenge inoculums were prepared using Pseudomonas aeruginosa (ATCC 9027), Staphylococcus aureus (ATCC 6538), Serratia marcescens (ATCC 13880), Candida albicans (ATCC 10231), and Fusarium solani (ATCC 36031). The test organisms were cultured on appropriate agar and the cultures were harvested using sterile DPBST (Dulbecco's Phosphate Buffered Saline plus 0.05% w/v polysorbate 80) or a suitable diluent and transferred to a suitable vessel. Spore suspensions were filtered through sterile glass wool to remove hyphal fragments. Serratia marcescens, as appropriate, was filtered (eg., through a 1.2 μ filter) to clarify the suspension. After harvesting, the suspension was centrifuged at no more than 5000× g for a maximum of 30 minutes at 20-25° C. The supernatant was poured off and resuspended in DPBST or other suitable diluent. The suspension was centrifuged a second time, and resuspended in DPBST or other suitable diluent. All challenge bacterial and fungal cell suspensions were adjusted with DPBST or other suitable diluent to 1×10^7 -10^8 cfu/mL. The appropriate cell concentration may be estimated by measuring the turbidity of the suspension, for example using a spectrophotometer at a preselected wavelength, for example 490 nm. One tube was prepared containing a minimum of 10 mL of test solution per challenge organism. Each tube of the solution to be tested was inoculated with a suspension of the test organism sufficient to provide a final count of 1.0×10^5 -10^6 cfu/mL, the volume of the inoculum not exceeding 1% of the sample volume. Dispersion of the inoculum was ensured by vortexing the sample for at least 15 seconds. The inoculated product was stored at 10-25° C. Aliquots in the amount of 1.0 mL were taken of the inoculated product for determination of viable counts after certain time periods of disinfection. The time points for the bacteria were 25, 50, 75, and 100% of the minimum disinfection time. Yeast and mold were tested at an additional timepoint of at least 400% of the minimum disinfection time. The suspension was mixed well by vortexing vigorously for at least 5 second. The 1.0 mL aliquots removed at the specified time intervals were subjected to a suitable series of decimal dilutions in validated neutralizing media. The suspensions were mixed vigorously and incubated for a suitable period of time to allow for neutralization of the microbial agent. The viable count of organisms was determined in appropriate dilutions by preparation of triplicate plates of trypticase soy (TSA) agar for bacteria and Sabouraud dextrose agar (SDA) for mold and yeast. The bacterial recovery plates were incubated at 30-35° C. for 2-4 days. The yeast was incubated at 20-30° C. for 2-4 days and mold recovery plates at 20-25° C. for 3-7 days. The average number of colony forming units was determined on countable plates. Countable plates refer to 30-300 cfu/plates for bacteria and yeast, and 8 to 80 cfu/plate for mold except when colonies are observed only for the 10^0 or 10^-1 dilution plates. The microbial reduction was then calculated at the specified time points. […] Following inoculation in a validated neutralizing broth and incubation for an appropriate period of time, the inoculum control must be between 1.0×10^5 -1.0×10^6 cfu/mL
(§2) The solutions were evaluated based on the performance requirement referred to as the "Stand-Alone Procedure for Disinfecting Products" (hereafter the "stand-alone test") and is based on the Disinfection Efficacy Testing for contact lens care products under the Draft Premarket Notification (510(k)) Guidance Document For Contact Lens Care Products dated Apr. 1, 1996, prepared by the U.S. Food and Drug Administration, Division of Ophthalmic Devices. […]

[2] = test system: Fusarium solani (ATCC 36031); test: Antimicrobial efficacy (stand-alone log reduction), F. solani; format: cell-based; conditions: for log reduction at 4 µg/mL: 4.0 ppm alexidine in ReNu MPS
Experimental: as §1, §2

CCCCC(CC)CNC(=N)NC(=N)NCCCCCCNC(=N)NC(=N)NCC(CC)CCCC.Cl.Cl (stereo not drawn) [Alexidine.2HCl, 1,1 '-hexamethylenebis(5-(2-ethylhexyl)-biguanide) dihydrochloride]
log reduction at 4 ppm ([1]; ATCC9027, 2.5 min, 4.0 ppm, aged 18 months, Exp. 1, 2.5 min, read-out: Log Reduction): 2.4 | log reduction at 4 ppm ([1]; ATCC9027, 2.5 min, 4.0 ppm, aged 18 months, Exp. 2, 2.5 min, read-out: Log Reduction): 1.9 | log reduction at 4 ppm ([1]; ATCC9027, 2.5 min, 4.0 ppm, aged 18 months, Exp. 3, 2.5 min, read-out: Log Reduction): 2.7 | log reduction at 1 ppm ([1]; ATCC9027, 5 min, 1.0 ppm, read-out: Log Reduction at 5 Minutes): 0.5 | log reduction at 2 ppm ([1]; ATCC9027, 5 min, 2.0 ppm, read-out: Log Reduction at 5 Minutes): 3 | log reduction at 3 ppm ([1]; ATCC9027, 5 min, 3.0 ppm, read-out: Log Reduction at 5 Minutes): 3.8 | log reduction at 4 ppm ([1]; ATCC9027, 5 min, 4.0 ppm, aged 18 months, Exp. 1, 5.0 min, read-out: Log Reduction): 3.2 | log reduction at 4 ppm ([1]; ATCC9027, 5 min, 4.0 ppm, aged 18 months, Exp. 2, 5.0 min, read-out: Log Reduction): 3.2 | log reduction at 4 ppm ([1]; ATCC9027, 5 min, 4.0 ppm, aged 18 months, Exp. 3, 5.0 min, read-out: Log Reduction): 3.1 | log reduction at 4 ppm ([1]; ATCC9027, 5 min, 4.0 ppm, read-out: Log Reduction at 5 Minutes): 3.7 | log reduction at 5 ppm ([1]; ATCC9027, 5 min, 5.0 ppm, read-out: Log Reduction at 5 Minutes): > 5 | log reduction at 4 ppm ([1]; ATCC9027, 0.125 h, 4.0 ppm, aged 18 months, Exp. 1, 7.5 min, read-out: Log Reduction): 3.4 | log reduction at 4 ppm ([1]; ATCC9027, 0.125 h, 4.0 ppm, aged 18 months, Exp. 2, 7.5 min, read-out: Log Reduction): 3.8 | log reduction at 4 ppm ([1]; ATCC9027, 0.125 h, 4.0 ppm, aged 18 months, Exp. 3, 7.5 min, read-out: Log Reduction): 4.1 | log reduction at 1 ppm ([1]; ATCC9027, 10 min, 1.0 ppm, read-out: Log Reduction at 10 Minutes): 3.2 | log reduction at 2 ppm ([1]; ATCC9027, 10 min, 2.0 ppm, read-out: Log Reduction at 10 Minutes): 4.3 | log reduction at 3 ppm ([1]; ATCC9027, 10 min, 3.0 ppm, read-out: Log Reduction at 10 Minutes): > 5 | log reduction at 4 ppm ([1]; ATCC9027, 10 min, 4.0 ppm, aged 18 months, Exp. 1, 10.0 min, read-out: Log Reduction): > 4.8 | log reduction at 4 ppm ([1]; ATCC9027, 10 min, 4.0 ppm, aged 18 months, Exp. 2, 10.0 min, read-out: Log Reduction): > 4.8 | log reduction at 4 ppm ([1]; ATCC9027, 10 min, 4.0 ppm, aged 18 months, Exp. 3, 10.0 min, read-out: Log Reduction): 4.9 | log reduction at 4 ppm ([1]; ATCC9027, 10 min, 4.0 ppm, read-out: Log Reduction at 10 Minutes): > 5 | log reduction at 5 ppm ([1]; ATCC9027, 10 min, 5.0 ppm, read-out: Log Reduction at 10 Minutes): > 5 | log reduction at 4 ppm ([1]; ATCC9027, 0.25 h): 4 | log reduction at 4 ppm ([1]; ATCC9027, 0.25 h, 4.0 ppm, Ex. 7, different lot aged 18 months, 15 min, read-out: Log Reduction): 4.2 | log reduction at 4 ppm ([1]; ATCC9027, 0.25 h, 4.0 ppm, Ex. 8, different batch aged 19 months at 25 °C, 15 min, read-out: Log Reduction): 3.3 | log reduction at 4 ppm ([1]; ATCC9027, 0.5 h, 4.0 ppm, Ex. 6, aged 19 months at 25 °C, 30 min, read-out: Log Reduction): > 4.8 | log reduction at 4 ppm ([1]; ATCC9027, 0.5 h, 4.0 ppm, Ex. 7, different lot aged 18 months, 30 min, read-out: Log Reduction): > 4.8 | log reduction at 4 ppm ([1]; ATCC9027, 0.5 h, 4.0 ppm, Ex. 8, different batch aged 19 months at 25 °C, 30 min, read-out: Log Reduction): > 4.8 | log reduction at 4 ppm ([1]; ATCC9027, 0.75 h, 4.0 ppm, Ex. 6, aged 19 months at 25 °C, 45 min, read-out: Log Reduction): > 4.8 | log reduction at 4 ppm ([1]; ATCC9027, 0.75 h, 4.0 ppm, Ex. 7, different lot aged 18 months, 45 min, read-out: Log Reduction): > 4.8 | log reduction at 4 ppm ([1]; ATCC9027, 0.75 h, 4.0 ppm, Ex. 8, different batch aged 19 months at 25 °C, 45 min, read-out: Log Reduction): > 4.8 | log reduction at 1 ppm ([1]; ATCC9027, 1 h, 1 ppm, 1 hr, read-out: Log Reduction): > 5 | log reduction at 2 ppm ([1]; ATCC9027, 1 h, 2 ppm, 1 hr, read-out: Log Reduction): > 5 | log reduction at 3 ppm ([1]; ATCC9027, 1 h, 3 ppm, 1 hr, read-out: Log Reduction): > 5 | log reduction at 4 µg/mL ([1]; ATCC9027, 1 h, 1 hr): > 4.8 | log reduction at 4 ppm ([1]; ATCC9027, 1 h, 4 ppm, 1 hr, read-out: Log Reduction): > 5 | log reduction at 4 ppm ([1]; ATCC9027, 1 h, 4.0 ppm, Ex. 6, aged 19 months at 25 °C, 60 min, read-out: Log Reduction): > 4.8 | log reduction at 4 ppm ([1]; ATCC9027, 1 h, 4.0 ppm, Ex. 7, different lot aged 18 months, 60 min, read-out: Log Reduction): > 4.8 | log reduction at 4 ppm ([1]; ATCC9027, 1 h, 4.0 ppm, Ex. 8, different batch aged 19 months at 25 °C, 60 min, read-out: Log Reduction): > 4.8 | log reduction at 5 ppm ([1]; ATCC9027, 1 h, 5 ppm, 1 hr, read-out: Log Reduction): > 5 | log reduction at 4 µg/mL ([1]; ATCC9027, 2 h, 2 hr): > 4.8 | log reduction at 4 µg/mL ([1]; ATCC9027, 3 h, 3 hr): > 4.8 | log reduction at 4 µg/mL ([1]; ATCC9027, 4 h, 4 hr): > 4.8 | log reduction at 4 ppm ([2]; ATCC36031, 2.5 min, aged 18 months, Exp. 1, 2.5 min): 2.5 | log reduction at 4 ppm ([2]; ATCC36031, 2.5 min, aged 18 months, Exp. 2, 2.5 min): 2.5 | log reduction at 4 ppm ([2]; ATCC36031, 2.5 min, aged 18 months, Exp. 3, 2.5 min): 2.2 | log reduction at 4 ppm ([2]; ATCC36031, 5 min, aged 18 months, Exp. 1, 5.0 min): 4.3 | log reduction at 4 ppm ([2]; ATCC36031, 5 min, aged 18 months, Exp. 2, 5.0 min): 4.1 | log reduction at 4 ppm ([2]; ATCC36031, 5 min, aged 18 months, Exp. 3, 5.0 min): 2.1 | log reduction at 4 ppm ([2]; ATCC36031, 0.125 h, aged 18 months, Exp. 1, 7.5 min): 4.6 | log reduction at 4 ppm ([2]; ATCC36031, 0.125 h, aged 18 months, Exp. 2, 7.5 min): 4.4 | log reduction at 4 ppm ([2]; ATCC36031, 0.125 h, aged 18 months, Exp. 3, 7.5 min): 2.4 | log reduction at 4 ppm ([2]; ATCC36031, 10 min, aged 18 months, Exp. 1, 10.0 min): > 4.6 | log reduction at 4 ppm ([2]; ATCC36031, 10 min, aged 18 months, Exp. 2, 10.0 min): 4.5 | log reduction at 4 ppm ([2]; ATCC36031, 10 min, aged 18 months, Exp. 3, 10.0 min): 2.5 | log reduction at 4 ppm ([2]; ATCC36031, 0.25 h, Ex. 6, aged 19 months at 25 °C, 15 min): 3.4 | log reduction at 4 ppm ([2]; ATCC36031, 0.25 h, Ex. 7, different lot aged 18 months, 15 min): 2.4 | log reduction at 4 ppm ([2]; ATCC36031, 0.25 h, Ex. 8, different batch aged 19 months at 25 °C, 15 min): 3.6 | log reduction at 4 ppm ([2]; ATCC36031, 0.5 h, Ex. 6, aged 19 months at 25 °C, 30 min): 4.3 | log reduction at 4 ppm ([2]; ATCC36031, 0.5 h, Ex. 7, different lot aged 18 months, 30 min): > 4.5 | log reduction at 4 ppm ([2]; ATCC36031, 0.5 h, Ex. 8, different batch aged 19 months at 25 °C, 30 min): > 4.6 | log reduction at 4 ppm ([2]; ATCC36031, 40 min, aged 18 months, Exp. 1, 40.0 min): > 4.6 | log reduction at 4 ppm ([2]; ATCC36031, 40 min, aged 18 months, Exp. 2, 40.0 min): > 4.5 | log reduction at 4 ppm ([2]; ATCC36031, 40 min, aged 18 months, Exp. 3, 40.0 min): > 4.6 | log reduction at 4 ppm ([2]; ATCC36031, 0.75 h, Ex. 6, aged 19 months at 25 °C, 45 min): 4.4 | log reduction at 4 ppm ([2]; ATCC36031, 0.75 h, Ex. 7, different lot aged 18 months, 45 min): > 4.5 | log reduction at 4 ppm ([2]; ATCC36031, 0.75 h, Ex. 8, different batch aged 19 months at 25 °C, 45 min): > 4.6 | log reduction at 4 µg/mL ([2]; ATCC36031, 1 h, 1 hr): 3.1 | log reduction at 4 ppm ([2]; ATCC36031, 1 h, Ex. 6, aged 19 months at 25 °C, 60 min): 4.2 | log reduction at 4 ppm ([2]; ATCC36031, 1 h, Ex. 7, different lot aged 18 months, 60 min): > 4.5 | log reduction at 4 ppm ([2]; ATCC36031, 1 h, Ex. 8, different batch aged 19 months at 25 °C, 60 min): > 4.6 | log reduction at 4 µg/mL ([2]; ATCC36031, 2 h, 2 hr): 4.1 | log reduction at 4 µg/mL ([2]; ATCC36031, 3 h, 3 hr): 4.5 | log reduction at 4 µg/mL ([2]; ATCC36031, 4 h, 4 hr): 4.6 | log reduction at 4 ppm ([2]; ATCC36031, 4 h, Ex. 6, aged 19 months at 25 °C, 4 h): > 4.4 | log reduction at 4 ppm ([2]; ATCC36031, 4 h, Ex. 7, different lot aged 18 months, 4 hrs): > 4.5 | log reduction at 4 ppm ([2]; ATCC36031, 4 h, Ex. 8, different batch aged 19 months at 25 °C, 4 hrs): > 4.6 | log reduction at 4 µg/mL ([2]; ATCC36031, 24 h, 24 hr): > 4.6
